Test results as given in a compilation of properties of binary mixtures (doi:10.1016/j.molliq.2014.08.031).

Test: xn = mol fraction of the nth substance listed
Settings: 101 kPa

CCCC[n+]1ccn(C)c1.CS(=O)(=O)[O-] + O
Settings	electrical conductivity [S/m]	viscosity [mPa·s]
328.15 K, x2 = 0.796	3.01	–
328.15 K, x2 = 0.861	5.12	–
328.15 K, x2 = 0.892	6.23	–
328.15 K, x2 = 0.929	7.21	–
328.15 K, x2 = 0.968	7	–
329.15 K, x1 = 0.004	2.04	–
329.15 K, x1 = 0.008	3.67	–
329.15 K, x1 = 0.019	5.81	–
329.15 K, x2 = 0.785	2.9	–
329.15 K, x2 = 0.796	3.05	–
329.15 K, x2 = 0.861	5.25	–
329.15 K, x2 = 0.892	6.26	–
329.15 K, x2 = 0.929	7.35	–
329.15 K, x2 = 0.951	7.83	–
330.15 K, x1 = 0.004	2.09	–
330.15 K, x1 = 0.008	3.72	–
330.15 K, x1 = 0.019	5.88	–
330.15 K, x2 = 0.704	1.84	–
330.15 K, x2 = 0.785	2.98	–
330.15 K, x2 = 0.861	5.37	–
330.15 K, x2 = 0.892	6.36	–
330.15 K, x2 = 0.929	7.5	–
330.15 K, x2 = 0.951	7.95	–
330.15 K, x2 = 0.968	7.38	–
331.15 K, x1 = 0.004	2.13	–
331.15 K, x1 = 0.008	3.77	–
331.15 K, x2 = 0.785	3.04	–
331.15 K, x2 = 0.796	3.2	–
331.15 K, x2 = 0.892	6.46	–
331.15 K, x2 = 0.929	7.61	–
331.15 K, x2 = 0.951	8.05	–
331.15 K, x2 = 0.968	7.39	–
332.15 K, x1 = 0.004	2.15	–
332.15 K, x1 = 0.008	3.83	–
332.15 K, x1 = 0.019	6.06	–
332.15 K, x2 = 0.704	1.99	–
332.15 K, x2 = 0.785	3.13	–
332.15 K, x2 = 0.796	3.29	–
332.15 K, x2 = 0.861	5.61	–
332.15 K, x2 = 0.892	6.57	–
332.15 K, x2 = 0.968	7.57	–
333.15 K, x1 = 0.004	2.17	–
333.15 K, x1 = 0.008	3.78	–
333.15 K, x1 = 0.019	6.17	–
333.15 K, x2 = 0.5596	–	14
333.15 K, x2 = 0.6542	–	9.62
333.15 K, x2 = 0.704	2.04	–
333.15 K, x2 = 0.7495	–	6.25
333.15 K, x2 = 0.785	3.21	–
333.15 K, x2 = 0.796	3.36	–
333.15 K, x2 = 0.8521	–	3.29
333.15 K, x2 = 0.861	5.75	–
333.15 K, x2 = 0.892	6.73	–
333.15 K, x2 = 0.9254	–	1.742
333.15 K, x2 = 0.929	7.9	–
333.15 K, x2 = 0.951	8.3	–
333.15 K, x2 = 0.975	–	0.79
334.15 K, x1 = 0.004	2.18	–
334.15 K, x1 = 0.008	3.93	–
334.15 K, x1 = 0.019	6.35	–
334.15 K, x2 = 0.704	2.12	–
334.15 K, x2 = 0.785	3.28	–
334.15 K, x2 = 0.796	3.43	–
334.15 K, x2 = 0.861	5.94	–
334.15 K, x2 = 0.892	6.95	–
334.15 K, x2 = 0.929	8.03	–
334.15 K, x2 = 0.951	8.46	–
335.15 K, x1 = 0.008	3.98	–
335.15 K, x1 = 0.019	6.33	–
335.15 K, x2 = 0.704	2.17	–
335.15 K, x2 = 0.785	3.35	–
335.15 K, x2 = 0.796	3.52	–
335.15 K, x2 = 0.861	5.97	–
335.15 K, x2 = 0.892	7.12	–
335.15 K, x2 = 0.929	8.18	–
335.15 K, x2 = 0.951	8.59	–
335.15 K, x2 = 0.968	7.93	–
336.15 K, x1 = 0.008	4.04	–
336.15 K, x1 = 0.019	6.42	–
336.15 K, x2 = 0.704	2.19	–
336.15 K, x2 = 0.785	3.42	–
336.15 K, x2 = 0.796	3.59	–
336.15 K, x2 = 0.861	6.09	–
336.15 K, x2 = 0.892	7.28	–
336.15 K, x2 = 0.929	8.3	–
336.15 K, x2 = 0.968	8.02	–
337.15 K, x1 = 0.004	2.29	–
337.15 K, x1 = 0.008	4.1	–
337.15 K, x1 = 0.019	6.53	–
337.15 K, x2 = 0.704	2.3	–
337.15 K, x2 = 0.785	3.52	–
337.15 K, x2 = 0.892	7.41	–
337.15 K, x2 = 0.951	8.9	–
337.15 K, x2 = 0.968	8.19	–
338.15 K, x1 = 0.004	2.31	–
338.15 K, x1 = 0.008	4.15	–
338.15 K, x2 = 0.704	2.35	–
338.15 K, x2 = 0.892	7.53	–
338.15 K, x2 = 0.929	8.57	–
338.15 K, x2 = 0.968	8.14	–
339.15 K, x1 = 0.004	2.35	–
339.15 K, x1 = 0.008	4.19	–
339.15 K, x1 = 0.019	6.73	–
339.15 K, x2 = 0.704	2.42	–
339.15 K, x2 = 0.785	3.67	–
339.15 K, x2 = 0.796	3.85	–
339.15 K, x2 = 0.861	6.47	–
339.15 K, x2 = 0.892	7.69	–
339.15 K, x2 = 0.929	8.73	–
339.15 K, x2 = 0.951	9.11	–
340.15 K, x1 = 0.004	2.39	–
340.15 K, x1 = 0.008	4.25	–
340.15 K, x1 = 0.019	6.83	–
340.15 K, x2 = 0.704	2.47	–
340.15 K, x2 = 0.785	3.75	–
340.15 K, x2 = 0.796	3.93	–
340.15 K, x2 = 0.861	6.6	–
340.15 K, x2 = 0.892	7.77	–
340.15 K, x2 = 0.929	8.85	–
340.15 K, x2 = 0.951	9.22	–
340.15 K, x2 = 0.968	8.56	–
341.15 K, x1 = 0.004	2.42	–
341.15 K, x1 = 0.008	4.29	–
341.15 K, x1 = 0.019	6.96	–
341.15 K, x2 = 0.704	2.54	–
341.15 K, x2 = 0.785	3.84	–
341.15 K, x2 = 0.796	4.07	–
341.15 K, x2 = 0.861	6.71	–
341.15 K, x2 = 0.929	9.03	–
341.15 K, x2 = 0.951	9.15	–
341.15 K, x2 = 0.968	8.57	–
342.15 K, x1 = 0.008	4.35	–
342.15 K, x1 = 0.019	6.93	–
342.15 K, x2 = 0.704	2.61	–
342.15 K, x2 = 0.796	4.11	–
342.15 K, x2 = 0.929	9.18	–
342.15 K, x2 = 0.951	9.55	–
342.15 K, x2 = 0.968	8.66	–
343.15 K, x1 = 0.008	4.38	–
343.15 K, x1 = 0.019	7.17	–
343.15 K, x2 = 0.5596	–	10.6
